# Source: ChEMBL document CHEMBL5321280, “Novel 4-Arylindolines Containing a Pyrido[3,2-d]pyrimidine Moiety as the Programmed Cell Death-1/Programmed Cell Death-Ligand 1 Interaction Inhibitors for Tumor Immunotherapy” (J Med Chem, 2023)
# Calls of active or inactive are those of the source. No cut-off for these calls is given here.
# What was measured:
# [1] = molecular target: Programmed cell death protein 1/Programmed cell death 1 ligand 1 (Homo sapiens, UniProt Q15116+Q9NZQ7); experiment: Inhibition of PD-1/PD-L1 (unknown origin) protein-protein interaction incubated for 105 mins by HTRF assay; assay type: protein-complex assay
# Programmed cell death protein 1/Programmed cell death 1 ligand 1, sequence (Q15116 whole entry): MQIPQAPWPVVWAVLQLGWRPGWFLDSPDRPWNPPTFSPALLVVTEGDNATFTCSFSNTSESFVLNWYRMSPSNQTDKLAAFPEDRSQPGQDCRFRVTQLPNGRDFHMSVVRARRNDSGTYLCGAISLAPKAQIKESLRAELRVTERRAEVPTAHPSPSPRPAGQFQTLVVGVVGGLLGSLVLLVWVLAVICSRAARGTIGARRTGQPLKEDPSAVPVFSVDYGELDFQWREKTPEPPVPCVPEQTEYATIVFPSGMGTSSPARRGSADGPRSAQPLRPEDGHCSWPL
# Programmed cell death protein 1/Programmed cell death 1 ligand 1, sequence (Q9NZQ7 whole entry): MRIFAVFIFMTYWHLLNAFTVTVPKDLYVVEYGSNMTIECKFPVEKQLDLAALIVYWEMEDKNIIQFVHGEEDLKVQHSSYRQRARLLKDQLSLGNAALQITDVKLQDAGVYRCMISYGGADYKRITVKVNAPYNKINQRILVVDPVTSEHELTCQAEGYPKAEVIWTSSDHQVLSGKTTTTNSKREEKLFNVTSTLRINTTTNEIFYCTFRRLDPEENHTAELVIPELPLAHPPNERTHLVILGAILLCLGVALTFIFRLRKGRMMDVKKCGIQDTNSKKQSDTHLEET
# T-cell [2] = experiment: Immunomodulatory activity in concanavalin A stimulated BALB/c mouse T-lymphocyte co-cultured with mouse CT26 cells assessed as T cell proliferation at 20 nM incubated for 48 hrs by flow cytometry (reference value: 64.08 +/- 0.91%); assay type: functional
# T-cell [3] = experiment: Immunomodulatory activity in concanavalin A stimulated BALB/c mouse T-lymphocyte co-cultured with mouse CT26 cells overexpressing PD-L1 assessed as T cell proliferation at 20 nM incubated for 48 hrs by flow cytometry (reference value: 58.47 +/- 2.07%); assay type: functional
# T-cell [4] = experiment: Immunomodulatory activity in concanavalin A stimulated BALB/c mouse T-lymphocyte co-cultured with mouse CT26 cells assessed as increase in T cell proliferation at 5 to 80 nM incubated for 48 hrs by flow cytometry; assay type: functional, cell-based; conditions: dose 5-80 nM
# T-cell [5] = experiment: Immunomodulatory activity in concanavalin A stimulated BALB/c mouse T-lymphocyte co-cultured with mouse CT26 cells overexpressing PD-L1 assessed as increase in T cell proliferation at 5 to 80 nM incubated for 48 hrs by flow cytometry; assay type: functional, cell-based; conditions: dose 5-80 nM
# [6] = Metabolic stability in human liver microsomes assessed as half life; assay type: ADME, Microsome
# T-cell [7] = experiment: Immunomodulatory activity in concanavalin A stimulated BALB/c mouse T-lymphocyte co-cultured with mouse CT26 cells overexpressing PD-L1 assessed as increase in proportion of CD3 positive CD8 positive T cells at 20 nM incubated for 48 hrs by flow cytometry (reference value: 15.01%); assay type: functional
# T-cell [8] = experiment: Immunomodulatory activity in concanavalin A stimulated BALB/c mouse T-lymphocyte co-cultured with mouse CT26 cells overexpressing PD-L1 assessed as increase in proportion of CD3 positive CD8 positive T cells at 80 nM incubated for 48 hrs by flow cytometry (reference value: 14.38%); assay type: functional
# T-cell [9] = experiment: Immunomodulatory activity in concanavalin A stimulated BALB/c mouse T-lymphocyte co-cultured with mouse CT26 cells overexpressing PD-L1 assessed as increase in proportion of CD3 positive CD69 positive T cells at 20 nM incubated for 48 hrs by flow cytometry (reference value: 39.97%); assay type: functional
# T-cell [10] = experiment: Immunomodulatory activity in concanavalin A stimulated BALB/c mouse T-lymphocyte co-cultured with mouse CT26 cells overexpressing PD-L1 assessed as increase in proportion of CD3 positive CD69 positive T cells at 80 nM incubated for 48 hrs by flow cytometry (reference value: 41.22%); assay type: functional
# [11] = Toxicity in C57 mouse implanted with mouse Lewis lung carcinoma cell line overexpressing PD-L1 assessed as effect on spleen viscera index at 20 mg/kg,ip administrated once every three days for 19 days; assay type: organism-based; conditions: in vivo, 456 h, time 19 day
# [12] = Toxicity in C57 mouse implanted with mouse Lewis lung carcinoma cell line overexpressing PD-L1 assessed as effect on liver viscera index at 20 mg/kg,ip administrated once every three days for 19 days; assay type: organism-based; conditions: in vivo, 456 h, time 19 day
# [13] = Toxicity in C57 mouse implanted with mouse Lewis lung carcinoma cell line overexpressing PD-L1 assessed as effect on heart viscera index at 20 mg/kg,ip administrated once every three days for 19 days; assay type: organism-based; conditions: in vivo, 456 h, time 19 day
# [14] = Toxicity in C57 mouse implanted with mouse Lewis lung carcinoma cell line overexpressing PD-L1 assessed as effect on lung viscera index at 20 mg/kg,ip administrated once every three days for 19 days; assay type: organism-based; conditions: in vivo, 456 h, time 19 day
# [15] = Metabolic stability in rat liver microsomes assessed as intrinsic clearance; assay type: ADME, Microsome; conditions: read-out: CLH
# [16] = Metabolic stability in human liver microsomes assessed as intrinsic clearance; assay type: ADME, Microsome; conditions: read-out: CLH
# [17] = Metabolic stability in rat liver microsomes assessed as half life; assay type: ADME, Microsome
# CT26 [18] = experiment: Cytotoxicity against mouse CT26 cells assessed as cell growth inhibition at 0.25 to 4096 nM incubated for 48 hrs by MTT assay; assay type: functional, cell-based; conditions: dose 0.25-4096 nM
# CT26 [19] = experiment: Cytotoxicity against mouse CT26 cells overexpressing PD-L1 assessed as cell growth inhibition at 0.25 to 4096 nM incubated for 48 hrs by MTT assay; assay type: functional, cell-based; conditions: dose 0.25-4096 nM
# Lewis lung carcinoma [20] = experiment: Cytotoxicity against mouse Lewis lung carcinoma cell line assessed as cell growth inhibition at 0.25 to 4096 nM incubated for 48 hrs by MTT assay; assay type: functional, cell-based; conditions: dose 0.25-4096 nM
# Lewis lung carcinoma [21] = experiment: Cytotoxicity against mouse Lewis lung carcinoma cell line overexpressing PD-L1 assessed as cell growth inhibition at 0.25 to 4096 nM incubated for 48 hrs by MTT assay; assay type: functional, cell-based; conditions: dose 0.25-4096 nM
# Lewis lung carcinoma [22] = experiment: Antitumor immunity against mouse Lewis lung carcinoma cell line overexpressing PD-L1 co-cultured with concanavalin A stimulated BALB/c mouse spleen T cell assessed as increase in T cell infiltration into tumor matrix at 20 nM incubated for 48 to 72 hrs by fluorescence microscopy; assay type: functional, cell-based; conditions: time 48-72 hrs
# Lewis lung carcinoma [23] = experiment: Antitumor immunity against mouse Lewis lung carcinoma cell line overexpressing PD-L1 co-cultured with concanavalin A stimulated BALB/c mouse spleen T cell assessed as increase in T cell infiltration into tumor matrix at 80 nM incubated for 48 to 72 hrs by fluorescence microscopy; assay type: functional, cell-based; conditions: time 48-72 hrs
# [24] = Antitumor activity against mouse Lewis lung carcinoma cell line overexpressing PD-L1 implanted in C57 mouse model assessed as tumor growth inhibition at 20 mg/kg,ip administrated once every three days for 19 days; assay type: functional; conditions: 456 h, time 19 day, read-out: TGI
# [25] = Toxicity in C57 mouse implanted with mouse Lewis lung carcinoma cell line overexpressing PD-L1 assessed as reduction in body weight at 20 mg/kg,ip administrated once every three days for 19 days; assay type: organism-based; conditions: in vivo, 456 h, time 19 day
# [26] = Toxicity in C57 mouse implanted with mouse Lewis lung carcinoma cell line overexpressing PD-L1 assessed as effect on kidney viscera index at 20 mg/kg,ip administrated once every three days for 19 days; assay type: organism-based; conditions: in vivo, 456 h, time 19 day
# [27] = (§1) Antitumor activity against mouse Lewis lung carcinoma cell line overexpressing PD-L1 implanted in C57 mouse model assessed as increase in infiltration of CD3 positive CD8 positive T cells in tumor by measuring viable cells at 20 mg/kg,ip administrated once every three days for 19 days by flow cytometry analysis (reference value: 84.51%); assay type: functional; conditions: time 19 day
# [28] = as §1, with “early apoptotic” for “viable”, “1.32%)” for “84.51%)”; assay type: functional; conditions: time 19 day
# [29] = as §1, with “late apoptotic” for “viable”, “9%)” for “84.51%)”; assay type: functional; conditions: time 19 day
# [30] = as §1, with “necrotic” for “viable”, “5.17%)” for “84.51%)”; assay type: functional; conditions: time 19 day
# [31] = as §1, with “CD4” for “CD8”, “83.97%)” for “84.51%)”; assay type: functional; conditions: time 19 day
# [32] = as §1, with “CD4” for “CD8”, “early apoptotic” for “viable”, “2.24%)” for “84.51%)”; assay type: functional; conditions: time 19 day
# [33] = as §1, with “CD4” for “CD8”, “late apoptotic” for “viable”, “12.07%)” for “84.51%)”; assay type: functional; conditions: time 19 day
# [34] = as §1, with “CD4” for “CD8”, “necrotic” for “viable”, “1.72%)” for “84.51%)”; assay type: functional; conditions: time 19 day
# [35] = Antitumor activity against mouse Lewis lung carcinoma cell line overexpressing PD-L1 implanted in C57 mouse model assessed as increase in CD8 positive GzmB positive T cells in tumor at 20 mg/kg,ip administrated once every three days for 19 days by flow cytometry analysis (reference value: 9.11%); assay type: functional; conditions: time 19 day
# [36] = Antitumor activity against mouse Lewis lung carcinoma cell line overexpressing PD-L1 implanted in C57 mouse model assessed as increase in CD8 positive IFN-gamma positive T cells in tumor at 20 mg/kg,ip administrated once every three days for 19 days by flow cytometry analysis (Rvb =20.66%); assay type: functional; conditions: time 19 day
smiles,measurement,setting,value
O=C(O)[C@@H]1CCCCN1Cc1cnc2c(N3CCc4c(-c5ccccc5)cccc43)ncnc2c1,IC50,[1],26.6 nM
O=C(O)[C@@H]1CCN(Cc2cnc3c(N4CCc5c(-c6ccccc6)cccc54)ncnc3c2)C1,IC50,[1],8.6 nM
same,Activity,T-cell [2],43.98%
same,Activity,T-cell [3],38.74%
same,Activity,T-cell [4],Active
same,Activity,T-cell [5],Active
OC[C@H]1CCN(Cc2cnc3c(N4CCc5c(-c6ccccc6)cccc54)ncnc3c2)C1,IC50,[1],21.4 nM
NS(=O)(=O)NCCNCc1cnc2c(N3CCc4c(-c5ccccc5)cccc43)ncnc2c1,IC50,[1],21.1 nM
CC(=O)NCCNCc1cnc2c(N3CCc4c(-c5ccccc5)cccc43)ncnc2c1,IC50,[1],3.9 nM
same,half-life,[6],1.85 h
same,Activity,T-cell [2],51.57%
same,Activity,T-cell [3],55.7%
same,Activity,T-cell [4],Active
same,Activity,T-cell [5],Active
same,Activity,T-cell [7],18.56%
same,Activity,T-cell [8],22.16%
same,Activity,T-cell [9],43.99%
same,Activity,T-cell [10],45.07%
O=C(O)[C@H]1CCN(Cc2cnc3c(N4CCc5c(-c6ccccc6)cccc54)nccc3c2)C1,IC50,[1],80.5 nM
O=C(O)[C@H]1CCCCN1Cc1cnc2c(N3CCc4c(-c5ccccc5)cccc43)ncnc2c1,IC50,[1],62.1 nM
CC(=O)NCCNCc1cnc2c(N3CCc4c(-c5ccc6c(c5)OCCO6)cccc43)ncnc2c1,IC50,[1],13.8 nM
CC(C)(CO)NCc1cnc2c(N3CCc4c(-c5ccccc5)cccc43)ncnc2c1,Activity,[11],Non-Toxic
same,Activity,[12],Non-Toxic
same,Activity,[13],Non-Toxic
same,Activity,[14],Toxic
same,microsomal CLint,[15],8.8 µL/min/mg
same,microsomal CLint,[16],6.9 µL/min/mg
same,IC50,[1],6.3 nM
same,half-life,[6],3.34 h
same,half-life,[17],2.64 h
same,Activity,T-cell [2],54.61%
same,Activity,T-cell [3],62.69%
same,Activity,T-cell [4],Active
same,Activity,T-cell [5],Active
same,Activity,T-cell [7],23.79%
same,Activity,T-cell [8],26.32%
same,Activity,T-cell [9],56.41%
same,Activity,T-cell [10],61.21%
same,Activity,CT26 [18],inactive
same,Activity,CT26 [19],inactive
same,Activity,Lewis lung carcinoma [20],inactive
same,Activity,Lewis lung carcinoma [21],inactive
same,Activity,Lewis lung carcinoma [22],Active
same,Activity,Lewis lung carcinoma [23],Active
same,inhibition in vivo at 20 mg/kg,[24],61.9%
same,Activity,[25],Toxic
same,Activity,[26],Non-Toxic
same,Activity,[27],75.06%
same,Activity,[28],4.77%
same,Activity,[29],17.77%
same,Activity,[30],2.4%
same,Activity,[31],73.8%
same,Activity,[32],3.13%
same,Activity,[33],22.29%
same,Activity,[34],0.78%
same,Activity,[35],21.13%
same,Activity,[36],31.1%
COCCNCc1cnc2c(N3CCc4c(-c5ccccc5)cccc43)ncnc2c1,IC50,[1],23.4 nM
c1ccc(-c2cccc3c2CCN3c2ncnc3cc(CNC4CCOCC4)cnc23)cc1,IC50,[1],21.2 nM
same,half-life,[6],1.51 h
OCCNCc1ccc2c(N3CCc4c(-c5ccccc5)cccc43)ncnc2c1,IC50,[1],43.4 nM
O[C@@H]1CCN(Cc2cnc3c(N4CCc5c(-c6ccccc6)cccc54)ncnc3c2)C1,IC50,[1],13.2 nM
NS(=O)(=O)NCCNCc1cnc2c(N3CCc4c(-c5ccc6c(c5)OCCO6)cccc43)ncnc2c1,IC50,[1],31.5 nM
COCCNCc1cnc2c(N3CCc4c(-c5ccc6c(c5)OCCO6)cccc43)ncnc2c1,IC50,[1],15.5 nM
O=C(O)[C@@H]1CCCN1Cc1cnc2c(N3CCc4c(-c5ccccc5)cccc43)ncnc2c1,IC50,[1],8.1 nM
same,Activity,T-cell [2],64.03%
same,Activity,T-cell [3],61.9%
same,Activity,T-cell [4],Active
same,Activity,T-cell [5],Active
